pIC50: −log10 of the molar value. The source made the active and inactive calls. No cut-off for these calls is given here.
Tests used:
[1] = tested on: A673; assay: Antiproliferative activity against human A673 cells assessed as reduction in cell viability at 10 uM incubated for 24 to 48 hrs by CCK-8 assay; assay type: functional, cell-based; conditions: time lower […], time upper 48.0 hrs
[2] = tested on: CAL-62; assay: Antiproliferative activity against human CAL-62 cells assessed as reduction in cell viability at 10 uM incubated for 24 to 48 hrs by CCK-8 assay; assay type: functional, cell-based; conditions: time lower […], time upper 48.0 hrs
[3] = tested on: GBC-SD; assay: Antiproliferative activity against human GBC-SD cells assessed as reduction in cell viability at 10 uM incubated for 24 to 48 hrs by CCK-8 assay; assay type: functional, cell-based; conditions: time lower […], time upper 48.0 hrs
[4] = tested on: HOS; assay: Antiproliferative activity against human HOS cells assessed as reduction in cell viability at 10 uM incubated for 24 to 48 hrs by CCK-8 assay; assay type: functional, cell-based; conditions: time lower […], time upper 48.0 hrs
[5] = tested on: HCT-116; assay: Induction of cell cycle arrest in human HCT-116 cells assessed as decrease in accumulation of cells at S phase at 3 to 12 uM incubated for 48 hrs by PI staining based flow cytometry analysis (reference value: 46.9 %); assay type: functional; parameters: scale not given: the % may be the effect or the level left; conditions: dose 3-12 µM
[6] = target: Receptor-type tyrosine-protein kinase FLT3 (Homo sapiens) (UniProt P36888); assay: Inhibition of human FLT3 at 1 uM
Receptor-type tyrosine-protein kinase FLT3 (Homo sapiens), sequence (P36888 whole entry, canonical isoform): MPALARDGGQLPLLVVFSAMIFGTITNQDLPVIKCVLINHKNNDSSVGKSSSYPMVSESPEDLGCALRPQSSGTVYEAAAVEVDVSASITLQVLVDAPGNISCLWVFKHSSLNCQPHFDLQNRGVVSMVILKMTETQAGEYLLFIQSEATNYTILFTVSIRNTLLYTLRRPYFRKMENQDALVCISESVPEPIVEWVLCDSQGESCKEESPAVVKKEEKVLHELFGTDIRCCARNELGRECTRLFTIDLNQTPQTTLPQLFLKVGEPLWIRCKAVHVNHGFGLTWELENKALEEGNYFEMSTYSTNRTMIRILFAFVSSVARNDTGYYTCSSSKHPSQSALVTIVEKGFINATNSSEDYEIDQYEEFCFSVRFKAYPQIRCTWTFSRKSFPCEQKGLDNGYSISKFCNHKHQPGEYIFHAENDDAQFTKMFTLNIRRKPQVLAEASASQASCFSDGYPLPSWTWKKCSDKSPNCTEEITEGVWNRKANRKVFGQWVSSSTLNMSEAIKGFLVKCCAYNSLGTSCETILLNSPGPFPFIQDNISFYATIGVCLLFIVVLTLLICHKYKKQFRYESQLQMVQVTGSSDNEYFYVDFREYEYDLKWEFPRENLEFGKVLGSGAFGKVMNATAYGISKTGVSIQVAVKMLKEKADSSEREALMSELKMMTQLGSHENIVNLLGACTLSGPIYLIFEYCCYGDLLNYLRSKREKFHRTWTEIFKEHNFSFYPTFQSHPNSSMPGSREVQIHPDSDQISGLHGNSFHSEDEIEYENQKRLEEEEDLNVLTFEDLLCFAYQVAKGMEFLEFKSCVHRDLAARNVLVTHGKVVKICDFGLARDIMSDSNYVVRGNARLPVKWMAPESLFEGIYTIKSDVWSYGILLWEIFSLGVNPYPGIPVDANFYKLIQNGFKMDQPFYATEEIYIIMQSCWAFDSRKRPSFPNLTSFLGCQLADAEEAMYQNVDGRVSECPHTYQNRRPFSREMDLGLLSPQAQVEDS

[7] = target: Phosphatidylinositol 4,5-bisphosphate 3-kinase catalytic subunit gamma isoform (Homo sapiens, UniProt P48736); assay: Inhibition of PI3Kgamma (unknown origin) by ADP-Glo luminescent kinase assay
Phosphatidylinositol 4,5-bisphosphate 3-kinase catalytic subunit gamma isoform, sequence (P48736 whole entry, canonical isoform): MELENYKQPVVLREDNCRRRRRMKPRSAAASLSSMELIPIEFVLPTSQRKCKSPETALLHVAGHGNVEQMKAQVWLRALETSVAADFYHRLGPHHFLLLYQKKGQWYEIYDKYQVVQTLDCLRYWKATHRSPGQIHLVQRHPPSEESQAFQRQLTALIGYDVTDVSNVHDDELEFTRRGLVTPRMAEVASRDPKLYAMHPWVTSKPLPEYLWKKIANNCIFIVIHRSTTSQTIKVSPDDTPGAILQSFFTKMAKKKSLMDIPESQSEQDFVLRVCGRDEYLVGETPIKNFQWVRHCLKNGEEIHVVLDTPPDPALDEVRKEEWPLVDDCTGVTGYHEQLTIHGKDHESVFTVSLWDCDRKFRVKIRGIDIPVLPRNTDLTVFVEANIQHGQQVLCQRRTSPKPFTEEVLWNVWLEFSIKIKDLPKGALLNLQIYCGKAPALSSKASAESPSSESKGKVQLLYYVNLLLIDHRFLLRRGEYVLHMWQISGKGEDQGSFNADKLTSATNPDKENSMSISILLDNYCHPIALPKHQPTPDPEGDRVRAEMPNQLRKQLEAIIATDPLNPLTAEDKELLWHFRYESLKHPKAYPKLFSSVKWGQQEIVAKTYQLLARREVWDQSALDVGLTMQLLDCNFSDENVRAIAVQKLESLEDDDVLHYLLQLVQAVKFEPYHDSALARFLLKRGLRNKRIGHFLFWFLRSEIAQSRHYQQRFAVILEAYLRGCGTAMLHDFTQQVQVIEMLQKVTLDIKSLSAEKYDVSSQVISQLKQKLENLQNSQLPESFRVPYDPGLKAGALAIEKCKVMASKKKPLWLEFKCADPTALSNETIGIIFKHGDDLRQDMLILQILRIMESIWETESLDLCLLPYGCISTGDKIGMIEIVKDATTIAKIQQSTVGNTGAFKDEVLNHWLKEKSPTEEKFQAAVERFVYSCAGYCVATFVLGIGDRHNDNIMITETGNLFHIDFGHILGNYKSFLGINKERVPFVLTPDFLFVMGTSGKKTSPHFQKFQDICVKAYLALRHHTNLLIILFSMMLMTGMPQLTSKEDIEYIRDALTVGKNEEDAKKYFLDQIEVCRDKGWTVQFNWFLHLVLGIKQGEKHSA

[8] = MRT (0 to infinity) in Sprague-Dawley rat at 5 mg/kg, iv measured upto 24 hrs by LC-MS analysis; assay type: ADME, organism-based; conditions: in vivo
[9] = tested on: HCT-116; assay: Induction of cell cycle arrest in human HCT-116 cells assessed as decrease in accumulation of cells at G2/M phase at 3 to 12 uM incubated for 48 hrs by PI staining based flow cytometry analysis (reference value: 16.5 %); assay type: functional; parameters: scale not given: the % may be the effect or the level left; conditions: dose 3-12 µM
[10] = Cytotoxicity against human MCF-10A cells assessed as reduction in cell viability incubated for 24 to 48 hrs by CCK-8 assay; assay type: toxicity, cell-based
[11] = tested on: HCT-116; assay: Antiproliferative activity against human HCT-116 cells assessed as inhibition of ERK1/2 phosphorylation incubated for 48 hrs by Western blotting analysis; assay type: functional, cell-based; conditions: dose 3-12 µM
[12] = target: Serine/threonine-protein kinase 17A (Homo sapiens) (UniProt Q9UEE5); assay: Inhibition of human DRAK1 at 1 uM
Serine/threonine-protein kinase 17A (Homo sapiens), sequence (Q9UEE5 whole entry): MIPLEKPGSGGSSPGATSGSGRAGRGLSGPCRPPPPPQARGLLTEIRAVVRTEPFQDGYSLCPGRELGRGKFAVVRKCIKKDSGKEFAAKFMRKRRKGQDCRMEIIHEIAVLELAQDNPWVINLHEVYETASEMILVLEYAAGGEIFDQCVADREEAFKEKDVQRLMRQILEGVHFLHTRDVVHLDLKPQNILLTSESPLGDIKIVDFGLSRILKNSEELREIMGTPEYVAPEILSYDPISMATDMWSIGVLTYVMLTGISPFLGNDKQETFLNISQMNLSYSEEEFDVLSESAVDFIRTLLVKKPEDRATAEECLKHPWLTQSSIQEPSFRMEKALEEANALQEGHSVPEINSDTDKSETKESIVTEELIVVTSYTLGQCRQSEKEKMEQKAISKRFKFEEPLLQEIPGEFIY

[13] = Metabolic stability in artificial gastrointestinal fluid assessed as compound remaining measured upto 8 hrs by LC-MS/MS analysis; assay type: ADME
[14] = tested on: HCT-116; assay: Induction of cell cycle arrest in human HCT-116 cells assessed as increase in accumulation of cells at G1/G0 phase at 3 to 12 uM incubated for 48 hrs by PI staining based flow cytometry analysis (reference value: 36.6 %); assay type: functional; conditions: dose 3-12 µM
[15] = target: Cytochrome P450 2D6 (Homo sapiens, UniProt P10635); assay: Inhibition of CYP2D6 in human liver microsomes using dextromethorphan as substrate pre-incubated for 30 mins followed by substrate addition and measured after 15 mins in presence of NADPH by LC/MS analysis; assay type: ADME, Microsome
Cytochrome P450 2D6, sequence (P10635 whole entry): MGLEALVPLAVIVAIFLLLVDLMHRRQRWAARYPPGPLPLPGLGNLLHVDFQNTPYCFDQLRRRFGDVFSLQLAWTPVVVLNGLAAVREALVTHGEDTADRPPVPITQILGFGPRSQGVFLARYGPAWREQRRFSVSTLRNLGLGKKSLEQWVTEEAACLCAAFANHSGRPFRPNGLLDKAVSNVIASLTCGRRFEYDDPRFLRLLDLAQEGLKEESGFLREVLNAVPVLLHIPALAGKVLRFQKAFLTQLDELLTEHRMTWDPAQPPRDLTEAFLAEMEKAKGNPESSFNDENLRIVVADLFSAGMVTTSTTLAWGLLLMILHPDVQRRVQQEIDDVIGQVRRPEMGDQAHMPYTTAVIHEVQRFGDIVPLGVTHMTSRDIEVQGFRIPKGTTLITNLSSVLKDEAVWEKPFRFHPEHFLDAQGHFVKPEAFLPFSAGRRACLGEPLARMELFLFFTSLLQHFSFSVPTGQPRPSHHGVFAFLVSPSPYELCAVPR

[16] = Volume of distribution in Sprague-Dawley rat at 5 mg/kg, iv measured upto 24 hrs by LC-MS analysis; assay type: ADME, organism-based; conditions: in vivo
[17] = tested on: HCT-116; assay: Inhibition of cell invasion human HCT-116 cells incubated for 48 hrs by crystal violet staining based transwell assay; assay type: functional; conditions: dose 3-12 µM
[18] = Metabolic stability in Sprague-Dawley rat liver microsomes assessed as compound remaining at 5 ug/ml incubated for 1 hr in presence of NADPH by LC-MS/MS analysis; assay type: ADME, Microsome; conditions: at 5 µg/mL, read-out: Stability
[19] = tested on: HCT-116; assay: Antiproliferative activity against human HCT-116 cells assessed as inhibition of colony formation at 3 to 12 uM incubated for 48 hrs by crystal violet staining based assay; assay type: functional, cell-based; conditions: dose 3-12 µM
[20] = tested on: A-375; assay: Antiproliferative activity against human A-375 cells assessed as reduction in cell viability at 10 uM incubated for 24 to 48 hrs by CCK-8 assay; assay type: functional, cell-based; conditions: time lower […], time upper 48.0 hrs
[21] = target: T1, Phosphatidylinositol 4,5-bisphosphate 3-kinase catalytic subunit delta isoform (Homo sapiens, UniProt O00329); assay: Inhibition of PI3Kdelta (unknown origin) by ADP-Glo luminescent kinase assay
T1 sequence (O00329 whole entry): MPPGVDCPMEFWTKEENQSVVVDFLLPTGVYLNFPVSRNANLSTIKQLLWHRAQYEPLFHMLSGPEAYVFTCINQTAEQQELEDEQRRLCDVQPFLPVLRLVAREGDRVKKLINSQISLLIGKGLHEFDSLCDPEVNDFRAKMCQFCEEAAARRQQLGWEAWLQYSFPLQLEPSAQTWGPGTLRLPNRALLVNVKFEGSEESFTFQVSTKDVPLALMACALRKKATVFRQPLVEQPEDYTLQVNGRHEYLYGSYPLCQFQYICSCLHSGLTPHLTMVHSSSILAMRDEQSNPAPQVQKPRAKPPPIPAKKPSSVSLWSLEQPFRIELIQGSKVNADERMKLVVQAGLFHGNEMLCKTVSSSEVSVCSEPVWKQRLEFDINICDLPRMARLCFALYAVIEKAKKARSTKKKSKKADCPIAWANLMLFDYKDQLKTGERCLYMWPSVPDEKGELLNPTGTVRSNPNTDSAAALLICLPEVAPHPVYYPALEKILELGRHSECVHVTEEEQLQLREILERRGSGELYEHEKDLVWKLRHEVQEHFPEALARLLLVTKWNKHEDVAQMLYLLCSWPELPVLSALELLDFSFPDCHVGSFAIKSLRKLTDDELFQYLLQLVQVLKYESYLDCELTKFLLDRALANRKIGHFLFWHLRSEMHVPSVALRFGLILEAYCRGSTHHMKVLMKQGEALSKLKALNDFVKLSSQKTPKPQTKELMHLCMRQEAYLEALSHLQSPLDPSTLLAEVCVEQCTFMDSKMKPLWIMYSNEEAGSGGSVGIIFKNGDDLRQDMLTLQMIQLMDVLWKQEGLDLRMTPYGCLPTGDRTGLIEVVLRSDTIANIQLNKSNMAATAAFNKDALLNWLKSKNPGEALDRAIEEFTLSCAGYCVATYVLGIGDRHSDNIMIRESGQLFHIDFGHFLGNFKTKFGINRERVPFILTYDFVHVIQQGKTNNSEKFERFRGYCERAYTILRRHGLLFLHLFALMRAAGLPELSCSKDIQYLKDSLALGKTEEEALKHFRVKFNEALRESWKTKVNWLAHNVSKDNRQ

[22] = tested on: HCT-116; assay: Induction of apoptosis in human HCT-116 cells assessed as increased total apoptotic cells at 12 uM incubated for 48 hrs by Annexin V-FITC and propidium iodide staining based flow cytometry analysis (reference value: 4.22 %); assay type: functional
[23] = target: Cytochrome P450 2C9 (Homo sapiens, UniProt P11712); assay: Inhibition of CYP2C9 in human liver microsomes using tolbutamide as substrate pre-incubated for 30 mins followed by substrate addition and measured after 15 mins in presence of NADPH by LC/MS analysis; assay type: ADME, Microsome
Cytochrome P450 2C9, sequence (P11712 whole entry): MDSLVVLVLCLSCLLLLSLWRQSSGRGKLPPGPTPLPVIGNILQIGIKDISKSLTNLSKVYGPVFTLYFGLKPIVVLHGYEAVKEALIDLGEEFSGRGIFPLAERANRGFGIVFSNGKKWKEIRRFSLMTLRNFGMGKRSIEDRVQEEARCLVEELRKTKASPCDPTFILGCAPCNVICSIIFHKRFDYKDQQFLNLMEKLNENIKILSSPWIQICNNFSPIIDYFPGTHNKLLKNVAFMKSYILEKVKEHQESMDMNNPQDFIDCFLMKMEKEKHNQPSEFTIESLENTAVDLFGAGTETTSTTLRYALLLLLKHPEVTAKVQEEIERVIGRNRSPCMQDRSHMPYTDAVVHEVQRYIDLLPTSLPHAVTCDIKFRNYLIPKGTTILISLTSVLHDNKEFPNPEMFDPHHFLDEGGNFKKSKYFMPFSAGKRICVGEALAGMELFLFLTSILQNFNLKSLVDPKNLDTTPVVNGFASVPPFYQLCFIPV

[24] = tested on: HCT-116; assay: Antiproliferative activity against human HCT-116 cells assessed as reduction in cell viability incubated for 24 to 48 hrs by CCK-8 assay; assay type: functional, cell-based
[25] = tested on: PaTu 8988t; assay: Antiproliferative activity against human PaTu 8988t cells assessed as reduction in cell viability at 10 uM incubated for 24 to 48 hrs by CCK-8 assay; assay type: functional, cell-based; conditions: time lower […], time upper 48.0 hrs

For Nc1nc2cc(-c3ccc4ncc(N5C[C@@H]6OCCO[C@@H]6C5)nc4c3)ccc2o1, the Activity [1] was “Active”, the Activity [2] was “Active” and the Activity [3] was “Active”. For the same compound, the Activity [4] was “Active”, the Activity [5] was 24.8% and the inhibition [6] was “Active”. For the same compound, the pIC50 [7] was 6.70, the MRT inf [8] was 1.8 h and the Activity [9] was 19%. The pIC50 [10] was 4.27, the Activity [11] was “Dose-Dependent Effect” and the inhibition [12] was “Active”. The Stability [13] was “Stable”, the Activity [14] was 43.2% and the pIC50 [15] was less than 5.00. For the same compound, the Vd [16] was 5.2 L/kg, the inhibition [17] was “Dose-Dependent Effect” and the remaining at 1 h, 5 ug/ml [18] was 82.3%. For the same compound, the Activity [19] was “Active”, the Activity [20] was “Active” and the pIC50 [21] was 6.95. The Activity [22] was 27.03%, the pIC50 [23] was less than 5.00 and the pIC50 [24] was 5.42. For the same compound, the Activity [25] was “Active”.
